# Source: publication PMC6152277, “Synthesis and Evaluation of New Quinoxaline Derivatives of Dehydroabietic Acid as Potential Antitumor Agents” (Molecules : A Journal of Synthetic Chemistry and Natural …, 2017)
# Key:
# [1] = tested on: human cervical carcinoma cell line (HeLa); test: MTT cytotoxic assay, HeLa; assay type: cell-based; conditions: 48 h exposure
# Experimental: (§1) All the compounds (1–3, 4a–o) were evaluated for their in vitro cytotoxic activity against three cancer cell lines including human breast cancer cell line (MCF-7), human hepatocarcinoma cell line (SMMC-7721), human cervical carcinoma cell line (HeLa), and a noncancerous human hepatocyte cell line (LO2) using the MTT assay method. An anticancer drug etoposide (VP-16) was co-assayed as the positive control. The results of the test compounds shown as IC50 values (concentration required to inhibit tumor cell proliferation by 50%), are listed in Table 1.
# (§2) The in vitro cytotoxic activities of the quinoxaline derivatives of DAA were evaluated against a human breast cancer cell line (MCF-7), human hepatocarcinoma cell line (SMMC-7721), human cervical carcinoma cell line (HeLa) and noncancerous human hepatocyte cells (LO2) via the MTT colorimetric method. Briefly, different tumor cells were grown in DMEM supplemented with 10% fetal bovine serum, penicillin (100 U/mL), and streptomycin (50 μg/mL). Cells were harvested at the log phase of growth and seeded in 96-well plates (100 μL/well at a density of 2 × 10^5 cells/mL). After 24 h of incubation at 37 °C and 5% CO2 to allow for cell attachment, cultures were exposed to various concentrations of the isolated compounds for 48 h. Finally, the MTT solution (2.5 mg/mL in PBS) was added (40 μL/well). Plates were further incubated for 4 h at 37 °C, and the formazan crystals formed were dissolved by adding 150 μL/well of DMSO. Absorption at 570 nm was measured with an ELISA plate reader. The results were expressed as IC50 values with standard deviations, which were defined as the concentrations at which a 50% survival of the cells was discerned. Etoposide (VP-16) was co-assayed as the positive control.
# [2] = tested on: human hepatocarcinoma cell line (SMMC-7721); test: MTT cytotoxic assay, SMMC-7721; assay type: cell-based; conditions: 48 h exposure
# Experimental: as §1, §2
# SMMC-7721 cells [3] = test: Cell cycle analysis (PI staining, flow cytometry); assay type: cell-based, human
# Experimental: Subsequently, to determine the possible role of the cell cycle arrest in cell growth inhibition induced by target compounds, SMMC-7721 cells were treated with different concentrations of compound 4b. The cell cycle distribution was investigated by flow cytometric analysis after staining of DNA with propidium iodide (PI).
# SMMC-7721 cells were treated with indicated concentrations of compound 4b. After incubation for 48 h, the cells were washed twice with ice-cold PBS, fixed and permeabilized with ice-cold 70% ethanol at −20 °C overnight. The cells were treated with 100 μg/mL RNase A at 37 °C for 30 min after being washed with ice-cold PBS, and finally stained with 400 μL of 1 mg/mL PI in the dark at 4 °C for 30 min. The samples were then analyzed for their DNA content by flow cytometry (Becton-Dickinson FACSCalibur, New York, NY, USA).
# [4] = tested on: noncancerous human hepatocyte cells (LO2); test: MTT cytotoxic assay, LO2; assay type: cell-based; conditions: 48 h exposure, noncancerous hepatocytes
# Experimental: as §1, §2
# SMMC-7721 cells [5] = test: Annexin V-FITC/PI dual staining assay; assay type: cell-based, human
# Description: The apoptotic effect of compound 4b was further evaluated by a Annexin V-FITC/propidium iodide (AV/PI) dual staining assay to examine the occurrence of phosphatidylserine externalization, which facilitated the detection of live cells (lower left quadrant; AV−/PI−), early apoptotic cells (lower right quadrant; AV+/PI−), late apoptotic cells (upper right quadrant; AV+/PI+) and necrotic cells (upper left quadrant; AV−/PI+).
# Apoptosis was discriminated with the Annexin V-FITC/PI dual staining assay. SMMC-7721 cells were seeded at 1 × 10^5 cells per well in 10% fetal calf serum (FBS)-DMEM into six-well plates, and treated with compound 4b for 24 h. The cells were washed twice with cold PBS and then resuspended in 1 × binding buffer (0.1 M Hepes/NaOH (pH 7.4), 1.4 M NaCl, 25 mM CaCl2) at a concentration of 1 × 10^6 cells/mL. The solution (100 μL) was transferred to 5 mL culture tubes, and 5 μL of Annexin V-FITC (BD, Pharmingen) and 5 μL of PI were added to each tube. The cells were gently vortexed, and incubated for 30 min at 25 °C in the dark. PBS (200 μL) was added to each tube. The analysis was performed on a flow cytometry (Becton-Dickinson FACSCalibur, New York, NY, USA).
# SMMC-7721 cells [6] = test: Hoechst 33258 staining assay; assay type: cell-based, human; conditions: SMMC-7721, 0.2, 1.0 and 5.0 μM, 24 h
# Experimental: To investigate the morphological changes induced by compound 4b in SMMC-7721 cells, Hoechst staining was carried out. Hoechst 33258 is a cell membrane permeable dye, which stains the live cells’ nuclei uniformly as light-blue and apoptotic cells’ nuclei as round and bright-blue, on account of karyopyknosis and chromatin condensation. SMMC-7721 cells were treated with various concentrations (0, 0.2, 1.0 and 5.0 μM) of compound 4b for 24 h, and stained with Hoechst 33258.
# Cells grown on a sterile cover slip in six-well plates were treated with different concentrations of the test compound for 24 h. The culture medium containing compounds was removed, and the cells were fixed in 4% paraformaldehyde for 10 min. After being washed twice with PBS, the cells were stained with 0.5 mL of Hoechst 33258 (Beyotime, Haimen, China) for 5 min, and then again washed twice with PBS. The stained nuclei were observed under a Nikon ECLIPSETE2000-S fluorescence microscope using 350 nm for excitation and 460 nm for emission.
# [7] = tested on: human breast cancer cell line (MCF-7); test: MTT cytotoxic assay, MCF-7; assay type: cell-based; conditions: MCF7, 48 h exposure
# Experimental: as §1, §2
compound,measurement,setting,value
"CCN(CC)Cc1nc2c(Br)cc3c(c2nc1CN(CC)CC)CCC1[C@](C)(C(=O)OC)CCC[C@]31C (stereo partly shown) [Compound 4b, Methyl 12-bromo-2′,3′-bis((diethylamino)methyl)-13,14-pyrazinyldeisopropyl-dehydroabietate]",IC50,[1],1.08 ± 0.12 µM
same,IC50,[2],0.72 ± 0.09 µM
same,cell cycle arrest,"SMMC-7721 cells [3]; SMMC-7721, 1.0-10.0 μM, 48 h",arrest SMMC-7721 cells in the G0/G1 stage
same,G2/M phase cells,"SMMC-7721 cells [3]; SMMC-7721, 48 h, end of the range 0-10.0 μM (control 10.42 ± 0.68%)",18.13 ± 0.13%
same,S phase cells,"SMMC-7721 cells [3]; SMMC-7721, 48 h, end of the range 0-10.0 μM (control 32.24 ± 0.21%)",8.54 ± 0.57%
same,G0/G1 phase cells,"SMMC-7721 cells [3]; SMMC-7721, 48 h, end of the range 0-10.0 μM (control 57.34 ± 0.48%)",73.33 ± 0.69%
same,IC50,[4],11.1 ± 0.57 µM
same,percentage of early apoptotic cells (AV+/PI−),"SMMC-7721 cells [5]; SMMC-7721, 5.0 μM, 24 h (control 2.84 ± 0.26%)",17.44 ± 0.68%
same,percentage of late apoptotic cells (AV+/PI+),"SMMC-7721 cells [5]; SMMC-7721, 5.0 μM, 24 h (control 7.45 ± 0.42%)",52.36 ± 1.23%
same,apoptotic cells (early + late),"SMMC-7721 cells [5]; SMMC-7721, 5.0 μM, 24 h (control 10.29%)",69.80%
same,induction of apoptosis (Annexin V-FITC/PI),"SMMC-7721 cells [5]; SMMC-7721, 24 h",induce the apoptosis of SMMC-7721 cells in a dose-dependent manner
same,nuclear morphological changes / apoptosis (Hoechst 33258),SMMC-7721 cells [6],induce apoptosis of SMMC-7721 cells in a dose-dependent manner
same,IC50,[7],1.78 ± 0.36 µM
